According to patent publication US20060094786A1, “Treating syndrome X with substituted tetralins and indanes” (priority 2002, published 2006):

Assays:
Format in all cases: cell-based
PPARγ = target: T1, PPARγ (Homo sapiens, UniProt P37231); assay: aP2 Assay for PPAR Gamma Agonists (bDNA aP2 mRNA, preadipocytes); settings: fold induction, unbracketed values; PPARγ standard FI = 70.3
T1 construct: Following the challenge of the preadipocytes, cells may be lysed with lysis buffer; endogenous in cells; host or cells: preadipocytes
T1 sequence (P37231 1-505): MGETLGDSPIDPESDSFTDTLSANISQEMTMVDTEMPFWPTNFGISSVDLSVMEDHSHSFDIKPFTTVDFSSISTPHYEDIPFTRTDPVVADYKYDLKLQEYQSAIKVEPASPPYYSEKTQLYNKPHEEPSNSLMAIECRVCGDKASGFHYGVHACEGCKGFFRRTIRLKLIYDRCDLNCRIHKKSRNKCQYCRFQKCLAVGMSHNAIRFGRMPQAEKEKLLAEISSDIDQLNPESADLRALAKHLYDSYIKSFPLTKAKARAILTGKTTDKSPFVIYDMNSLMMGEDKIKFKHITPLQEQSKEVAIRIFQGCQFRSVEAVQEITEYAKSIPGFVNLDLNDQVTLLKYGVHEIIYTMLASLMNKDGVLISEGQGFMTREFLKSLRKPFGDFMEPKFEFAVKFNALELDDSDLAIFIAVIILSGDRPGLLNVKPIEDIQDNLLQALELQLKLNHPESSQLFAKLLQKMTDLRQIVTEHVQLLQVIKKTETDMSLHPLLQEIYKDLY
Text: aP2 Assay for PPAR Gamma Agonists
The procedure is described in detail in Burris et al., Molecular Endocrinology 1999, 13:410, which is hereby incorporated by reference in its entirety, and aP2 assay results of agonist intrinsic activity may be presented as fold increase over vehicle in induction of aP2 mRNA production.
Twenty-four hours after the initial seeding of the 96-well plates by hand (around 20,000/well), the differentiation assay may be initiated. Medium may be removed and replaced with 150 μl of differentiation medium containing vehicle (DMSO) or test compounds. Cells may be returned to incubator for 24 hours culture. At the termination of the challenge, medium may be removed and 100 ul of lysis buffer may be added to initiate the bDNA aP2 mRNA assay. The branched DNA assay may be performed according to the manufacturer's protocol (Bayer Diagnostics; Emeryville, Calif.). Result may be expressed as the fold increase of aP2 mRNA production activated over vehicle controls. EC50's and Emax may be determined by non-linear regression with a sigmoidal fit curve.
Following the challenge of the preadipocytes, cells may be lysed with lysis buffer (Bayer Diagnostics) containing the aP2 oligonucleotides. After a 15 minute incubation at 53° C. or 30 minutes at 37° C. incubator, 70 ul of the lysis buffer from each well may be added to a corresponding capture well (preincubated with 70 ul of blocking buffer (Bayer Diagnostics)). The capture plate may be incubated overnight at 53° C. in a plate incubator (Bayer Diagnostics). After this incubation, the bDNA and labeled probes may be annealed as directed by the manufacturer. Following a 30-minute incubation with the luminescent alkaline phosphatase substrate, dioxitane, the luminescence may be quantitated in a Dynex MLX microtiter plate luminometer. Oligonucleotide probes designed to anneal to the aP2 mRNA and function in the bDNA mRNA detection system are designed with ProbeDesigner software (Bayer Diagnostics). This software package analyzes a target sequence of interest with a series of algorithms in order to determine which regions of the sequence can perform as locations for capture, label, or spacer probe annealing. The sequences of the oligonucleotides are as follows: […]

PPARδ = target: T2, PPARδ (Homo sapiens, UniProt Q03181); assay: Transfection Assay for PPARδ Receptors (PPAR-Gal4 receptor / Gal4-Luciferase Reporter, HEK293 cells); settings: fold induction, unbracketed values; PPARδ standard FI = 36.1
T2 sequence (Q03181 171-441 limits assumed): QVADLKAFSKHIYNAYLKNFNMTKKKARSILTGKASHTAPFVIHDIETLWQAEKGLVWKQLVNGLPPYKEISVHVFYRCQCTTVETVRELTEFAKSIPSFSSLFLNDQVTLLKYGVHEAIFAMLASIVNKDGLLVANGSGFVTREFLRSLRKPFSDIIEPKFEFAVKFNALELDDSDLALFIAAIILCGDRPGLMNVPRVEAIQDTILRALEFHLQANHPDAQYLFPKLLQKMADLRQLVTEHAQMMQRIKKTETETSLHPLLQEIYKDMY
Description: Transfection Assay for PPARδ Receptors
HEK293 cells were grown in DMEM/F-12 Media supplemented with 10% FBS and glutamine (GIBCOBRL). The cells were co-transfected with DNA for PPAR-Gal4 receptor and Gal4-Luciferase Reporter using the DMRIE-C Reagent. On the following day, the DNA-containing medium were replaced with 5% Charcoal treated FBS growth medium. After six hours, cells were seeded in 96 well plate and incubated at 37° C. in CO2 incubator overnight. Cells were challenged by test compounds and incubated for 24 hours at 37° C. in 5% CO2 incubator. Luciferase activity was assayed using the Steady-Glo Luciferase Assay Kit from Promega. DMRIE-C Reagent was purchased from GIBCO Cat. No. 10459-014. OPTI-MEM I Reduced Serum Medium was purchased from GIBCO Cat. No. 31985. Steady-Glo Luciferase Assay Kit was obtained from Promega Part# E254B.

PPARα = target: T3, PPARα (Rattus norvegicus, UniProt P37230); assay: HD bDNA Assay (HD gene induction, H4IIE rat hepatoma cell line); settings: assay not named, values equal the PPARα column
T3 construct: H4IIE rat hepatoma cell line was obtained from ATCC; host or cells: H4IIE rat hepatoma cells
T3 sequence (P37230 1-468): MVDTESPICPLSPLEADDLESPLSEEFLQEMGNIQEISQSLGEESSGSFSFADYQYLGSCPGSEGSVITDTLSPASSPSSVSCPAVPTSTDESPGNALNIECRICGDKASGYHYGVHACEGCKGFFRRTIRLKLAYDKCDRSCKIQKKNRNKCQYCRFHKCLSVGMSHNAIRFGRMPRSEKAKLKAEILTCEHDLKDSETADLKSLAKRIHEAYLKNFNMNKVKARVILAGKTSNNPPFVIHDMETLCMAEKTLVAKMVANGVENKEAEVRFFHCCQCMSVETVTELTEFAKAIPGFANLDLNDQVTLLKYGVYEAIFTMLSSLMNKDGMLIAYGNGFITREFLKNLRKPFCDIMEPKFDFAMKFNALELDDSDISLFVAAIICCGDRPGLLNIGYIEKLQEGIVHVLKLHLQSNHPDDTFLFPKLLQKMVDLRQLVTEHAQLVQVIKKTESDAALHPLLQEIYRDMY
Description: H4IIE rat hepatoma cell line was obtained from ATCC. Cells were cultured in 175 cm^2 tissue culture flask or seeded in 96-well plate with (high serum content, 10% fetal bovine serum and 10% calf serum) culture medium and maintained at 37° C. and 5% CO2 throughout study. Twenty-four hours after the initial seeding of the 96-well plate by hand (approximate 100,000/well), the HD gene induction assay was initiated. Media was removed and replaced with 100 ul of low serum culture media (5% charcoal/dextran treated calf serum) containing vehicle (DMSO) or test compounds or standard. Cells returned to incubator for 24 hours culture. At the termination of the challenge, 50 ul lysis buffer with HD gene specific CE, LE, BL probes was added directly into each well to initiate the is bDNA HD mRNA assay. The branched DNA assay was performed according to the manufacturer's protocol (Bayer Diagnostics; Emeryville. Calif.). At the end of the assay, the luminescence was quantitated in Dynex MLX microtiter plate luminometer. EC50's were determined by non-linear regression with a sigmoidal fit utilizing Graphpad Prism.

| SMILES | PPARγ FI (PPARγ) | PPARδ FI (PPARδ) | EC50 (PPARα) [µM] |
| --- | --- | --- | --- |
| CCN(C(=O)Nc1ccc(SC(F)(F)F)cc1)C1Cc2ccc(SC(C)(C)C(=O)O)cc2C1 (centres unmarked) [Example 4, 2-{2-[1-Ethyl-3-(4-trifluoromethylsulfanylphenyl)ureido]indan-5-ylsulfanyl}-2-methylpropionic acid] | 3.7 | – | – |
| CCCCCN(C(=O)Nc1ccc(SC(F)(F)F)cc1)C1Cc2ccc(SC(C)(C)C(=O)O)cc2C1 (centres unmarked) [Example 5, 2-Methyl-2-{2-[1-pentyl-3-(4-trifluoromethylsulfanylphenyl)ureido]indan-5-ylsulfanyl}propionic acid] | 4.0 | 2.5 | – |
| CCN(C(=O)Nc1ccc(C(C)C)cc1)C1Cc2ccc(SC(C)(C)C(=O)O)cc2C1 (centres unmarked) [Example 6, 2-{2-[1-Ethyl-3-(4-isopropylphenyl)ureido]indan-5-ylsulfanyl}-2-methylpropionic acid] | 1.9 | 3.6 | – |
| CCN(C(=O)Nc1ccc(N(C)C)cc1)C1Cc2ccc(SC(C)(C)C(=O)O)cc2C1 (centres unmarked) [Example 7, 2-{2-[3-(4-Dimethylaminophenyl)-1-ethylureido]indan-5-ylsulfanyl}-2-methylpropionic acid] | 0 | 0.8 | – |
| CCCCCN(C(=O)Nc1ccc(N(C)C)cc1)C1Cc2ccc(SC(C)(C)C(=O)O)cc2C1 (centres unmarked) [Example 9, 2-{2-[3-(4-Dimethylaminophenyl)-1-pentylureido]indan-5-ylsulfanyl}-2-methylpropionic acid] | 2.9 | 1.0 | – |
| CCCCCN(C(=O)Nc1ccc(C(C)C)cc1)C1Cc2ccc(SC(C)(C)C(=O)O)cc2C1 (centres unmarked) [Example 10, 2-{2-[3-(4-Isopropylphenyl)-1-(pentyl)ureido]indan-5-ylsulfanyl}-2-methylpropionic acid] | 5.1 | – | 0.165 |
| CCCCCN(C(=O)Nc1ccc(C(C)(C)C)cc1)C1Cc2ccc(SC(C)(C)C(=O)O)cc2C1 (centres unmarked) [Example 11, 2-{2-[3-(4-tert-butylphenyl)-1-(pentyl)ureido]indan-5-ylsulfanyl}-2-methylpropionic acid] | 6.1 | – | 0.173 |
| CCCCCN(C(=O)Nc1ccc(-c2ccccc2)cc1)C1Cc2ccc(SC(C)(C)C(=O)O)cc2C1 (centres unmarked) [Example 12, 2-[2-(3-Biphenyl-4-yl-1-pentylureido)indan-5-ylsulfanyl]-2-methylpropionic acid] | 11 | – | – |
| CCCCCCN(C(=O)Nc1ccc(C(C)C)cc1)C1Cc2ccc(SC(C)(C)C(=O)O)cc2C1 (centres unmarked) [Example 13, 2-{2-[3-(4-Isopropylphenyl)-1-hexylureido]indan-5-ylsulfanyl}-2-methylpropionic acid] | 1.2 | – | – |
| CC(C)(Sc1ccc2c(c1)CC(NC(=O)Nc1ccc(OC(F)(F)F)cc1)C2)C(=O)O (centres unmarked) [Example 18, 2-Methyl-2-{2-[3-(4-trifluoromethoxyphenyl)ureido]indan-5-ylsulfanyl}propionic acid] | 0.31 | – | – |
| CC(C)CCN(C(=O)Nc1ccc(C(C)C)cc1)C1Cc2ccc(SC(C)(C)C(=O)O)cc2C1 (centres unmarked) [Example 21, 2-{2-[3-(4-Isopropylphenyl)-1-(3-methylbutyl)ureido]indan-5-ylsulfanyl}-2-methylpropionic acid] | 0.05 | – | – |

The next lines start with the values.

| PPARγ FI (PPARγ) | PPARδ FI (PPARδ) | EC50 (PPARα) [µM] | SMILES |
| --- | --- | --- | --- |
| 0.24 | 4.2 | – | CCN(C(=O)Nc1ccc(OC(F)(F)F)cc1)C1Cc2ccc(SC(C)(C)C(=O)O)cc2C1 (centres unmarked) [Example 2, 2-{2-[1-Ethyl-3-(4-trifluoromethoxyphenyl)ureido]indan-5-ylsulfanyl}-2-methylpropionic acid] |
| 1.9 | 5.9 | – | CCCCCN(C(=O)Nc1ccc(OC(F)(F)F)cc1)C1Cc2ccc(SC(C)(C)C(=O)O)cc2C1 (centres unmarked) [Example 8, 2-Methyl-2-{2-[1-pentyl-3-(4-trifluoromethoxyphenyl)ureido]indan-5-ylsulfanyl}-2-methylpropionic acid] |
| 0.3 | 1.3 | – | CCCCCCN(C(=O)Nc1ccc(OC(F)(F)F)cc1)C1Cc2ccc(SC(C)(C)C(=O)O)cc2C1 (centres unmarked) [Example 14, 2-Methyl-2-{2-[1-hexyl-3-(4-trifluoromethoxyphenyl)ureido]indan-5-ylsulfanyl}propionic acid] |
| 0.37 | – | – | CCCN(C(=O)Nc1ccc(OC(F)(F)F)cc1)C1Cc2ccc(SC(C)(C)C(=O)O)cc2C1 (centres unmarked) [Example 16, 2-Methyl-2-{2-[1-propyl-3-(4-trifluoromethoxyphenyl)ureido]indan-5-ylsulfanyl}propionic acid] |
| 0.43 | – | – | CCCCN(C(=O)Nc1ccc(SC(F)(F)F)cc1)C1Cc2ccc(SC(C)(C)C(=O)O)cc2C1 (centres unmarked) [Example 17, 2-Methyl-2-{2-[1-butyl-3-(4-trifluoromethylsulfanylphenyl)ureido]indan-5-ylsulfanyl}propionic acid] |
| 0.44 | – | – | CC(C)CCN(C(=O)Nc1ccc(OC(F)(F)F)cc1)C1Cc2ccc(SC(C)(C)C(=O)O)cc2C1 (centres unmarked) [Example 20, 2-Methyl-2-{2-[1-(3-methylbutyl)-3-(4-trifluoromethoxyphenyl)ureido]indan-5-ylsulfanyl}-2-methylpropionic acid] |
